Values after ≈ are worked out from the molar mass of the structure shown. Where two headings read alike, the source gives them in different places.
Legend:
Pseudomonas fluorescens [1] = test: Broth two-fold serial dilution MIC test (Table 3), Ps.fl; assay type: cell-based; conditions: gram negative, dilution series 500 to 4 ppm
Excerpt: (§1) A minimum inhibitory concentration (MIC) value is obtained using a broth, two-fold serial dilution test performed as follows: A stock solution or dispersion of the test compound, typically at a concentration of 1%, is made in a 5:3:2 solvent solution of acetone, methanol, and water. A volume of the stock solution is dispensed into culture media to give an initial starting test concentration of 500 ppm compound.
(§2) When the test is ready to be done, each vessel in the dilution series, except the first vessel, contains an equal volume of compound free broth. The first vessel contains twice the volume of broth with the starting concentration of test compound. One half of the broth from the first vessel is transferred to the second vessel. After being mixed, one half the resulting volume is removed from the second vessel and transferred to the third vessel. The entire cycle is repeated sufficiently to give a series of concentrations amounting to 500, 250, 125, 63, 31, 16, 8, and 4 ppm, respectively.
(§3) Each vessel is then inoculated with a cell suspension of the appropriate test organism. Bacteria are grown in broth and fungi on agar slants for a time and at a temperature appropriate to the species being tested. At the end of the growth period, the broth is vortexed to disperse the cells. In the case of fungi, the spores are harvested by pipetting water onto the slant and dislodging the spores with a sterile loop. The cell/spore suspension is standardized by controlling incubation time, temperature, and the volume of the diluent. The suspension is then used to inoculate the vessels containing the broth compound. The vessels are then incubated at the appropriate temperature. After the incubation, the vessels are examined for growth/no growth. The minimum inhibitory concentration (MIC) is defined as the lowest concentration of compound that results in complete inhibition of growth of the test organism.
Pseudomonas fluorescens (Ps.fl), gram negative

Aspergillus niger [2] = test: Broth two-fold serial dilution MIC test (Table 3), A.n; assay type: cell-based; conditions: dilution series 500 to 4 ppm
Excerpt: as §1, §2, §3

Pseudomonas aerugenosa [3] = test: Broth two-fold serial dilution MIC test (Table 3), Ps.ae; assay type: cell-based; conditions: gram negative, dilution series 500 to 4 ppm
Excerpt: as §1, §2, §3
Pseudomonas aerugenosa (Ps.ae), gram negative

Phytophthora infestans = test: whole plant or invertebrate; assay type: in vivo
[4] = system: Puccinia recondita (f. sp. tritici Races PKB and PLD); test: whole plant or invertebrate; assay type: in vivo
Staphylococcus aureus [5] = test: Broth two-fold serial dilution MIC test (Table 3), S.a; assay type: cell-based; conditions: gram positive, dilution series 500 to 4 ppm
Excerpt: as §1, §2, §3
Staphylococcus aureus (S.a), gram positive

Aureobasidium pullulans [6] = test: Broth two-fold serial dilution MIC test (Table 3), A.p; assay type: cell-based; conditions: dilution series 500 to 4 ppm
Excerpt: as §1, §2, §3
Aureobasidium pullulans (A.p)

Escherichia coli [7] = test: Broth two-fold serial dilution MIC test (Table 3), E.c; assay type: cell-based; conditions: gram negative, dilution series 500 to 4 ppm
Excerpt: as §1, §2, §3
Escherichia coli (E.c), gram negative

[8] = system: Pellicularia filamentosa (f. sp. sasiki); test: whole plant or invertebrate; assay type: in vivo; conditions: 120 h; read-out: % Control RSB
[9] = system: Erysiphe graminis (f. sp. tritici); test: whole plant or invertebrate; assay type: in vivo
Piricularia oryzae = test: whole plant or invertebrate; assay type: in vivo; conditions: for pest or weed control at 100 ppm: read-out: % Control RB, application rate 100 ppm
[10] = system: Pseudoperonospora cubensis; test: whole plant or invertebrate; assay type: in vivo
[11] = system: Puccinia graminis (f. sp. tritici Race 15B-2); test: whole plant or invertebrate; assay type: in vivo; conditions: for pest or weed control at 200 ppm: Puccinia graminis, 336 h, read-out: % Control WSR
Escherichia coli [12] = test: Alternate Minimum Inhibitory Concentrations Test (Table 4), E.c; assay type: cell-based; conditions: Table 4 alternate test, 250 ppm to 0.8 ppm in TSB
Candida albicans = test: Alternate Minimum Inhibitory Concentrations Test (Table 4), C.alb; assay type: cell-based; conditions: Table 4 alternate test, 250 ppm to 0.8 ppm in TSB
Staphylococcus aureus [13] = test: Alternate Minimum Inhibitory Concentrations Test (Table 4), S.a; assay type: cell-based; conditions: Table 4 alternate test, 250 ppm to 0.8 ppm in TSB
Aspergillus niger [14] = test: Alternate Minimum Inhibitory Concentrations Test (Table 4), A.n; assay type: cell-based; conditions: Table 4 alternate test, 250 ppm to 0.8 ppm in TSB
Aureobasidium pullulans [15] = test: Alternate Minimum Inhibitory Concentrations Test (Table 4), A.p; assay type: cell-based; conditions: Table 4 alternate test, 250 ppm to 0.8 ppm in TSB
Pseudomonas aerugenosa [16] = test: Alternate Minimum Inhibitory Concentrations Test (Table 4), Ps.ae; assay type: cell-based; conditions: Table 4 alternate test, 250 ppm to 0.8 ppm in TSB
Pseudomonas fluorescens [17] = test: Alternate Minimum Inhibitory Concentrations Test (Table 4), Ps.fl; assay type: cell-based; conditions: Table 4 alternate test, 250 ppm to 0.8 ppm in TSB, 72 hours, 30° C.; for MIC: Pseudomonas fluorescens, read-out: MIC Ps.fl
In short: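 Broth microdilution MIC in TSB: compound (from acetone stock) serially diluted 1:1 from 250 ppm to 0.8 ppm, inoculated with diluted 24 h culture. After 3 days at 30 °C, the lowest concentration with no growth was recorded as MIC.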

Pythium ultimum = Pythium ultimum in vitro Fungitoxicity Assay in liquid culture; assay type: cell-based, Pythium ultimum (ATCC 26083); conditions: mycelial dry weight, 48 h at 25° C., shaking at 60 rpm
Method: Selected compounds of Examples 1-120 were subjected also to the following in vitro fungitoxicity assay against Pythium ultimum in a liquid culture, with the results as indicated in Table 6.
Pythium ultimum Fungitoxicity Assay
A dilution series of the test compound was prepared in dimethylsulfoxide, and 0.1 ml of each dilution was added to 19.9 ml of a liquid asparagine-sucrose medium (D. C. Erwin and K. Katznelson (1971), Can. J. Microbiol. 7, 15) in 9 cm diameter petri dishes to give the desired final concentrations of test compound. Plates were inoculated with mycelial plugs, 7 mm diameter, taken from the growing edge of 48 h old cultures of Pythium ultimum, (ATCC 26083), grown on potato dextrose agar. Two replicate plates were used for each treatment. The increase in mycelial dry weight was determined after growth for 48 h at 25° C. with shaking at 60 rpm. EC50 values were calculated from dose response curves.

[18] = Phytophthora infestans, in Solanum lycopersicum, 96 h, read-out: % Control TLB
[19] = Puccinia recondita, 240 h, read-out: % Control WLR
[20] = Blumeria graminis, read-out: % Control WPM
[21] = Pseudoperonospora cubensis, in Cucumis sativus, 168 h, read-out: % Control CDM

Compound	MIC (Pseudomonas fluorescens [1])	MIC (Aspergillus niger [2])	MIC (Pseudomonas aerugenosa [3])	pest or weed control at 100 ppm (Phytophthora infestans; [18])	pest or weed control at 100 ppm [4, 19]	MIC (Staphylococcus aureus [5])	MIC (Aureobasidium pullulans [6])	MIC (Escherichia coli [7])	pest or weed control at 100 ppm [8]	pest or weed control at 100 ppm [9, 20]	pest or weed control at 100 ppm (Piricularia oryzae; Pyricularia oryzae)	pest or weed control at 50 ppm [10, 21]	pest or weed control at 200 ppm [11]	MIC (Pseudomonas fluorescens [17])	further results
CCCCCCCCNC(=O)/C=C\SC(=O)C1=CCCCC1 [Compound 9, N-octyl-cis-3-[(1-cyclohexene)carbonylthio]acrylamide]	> 500 µg/mL	> 500 µg/mL	> 500 µg/mL	90%	0%	> 500 µg/mL	< 4 µg/mL	> 500 µg/mL	0%	0%	90%				
CCCCCCCCNC(=O)/C=C\SC(=O)CC [Compound 10, N-octyl-cis-3-(propanoylthio)acrylamide]	16 µg/mL (≈ 58.9 µM)	125 µg/mL (≈ 461 µM)	> 500 µg/mL	90%	50%	< 4 µg/mL	< 4 µg/mL	> 500 µg/mL	0%	0%	80%	85%	90%		
CCCCCCCCNC(=O)/C=C\SC(=O)CCC1CCCC1 [Compound 11, N-octyl-cis-3-[(3-cyclopentanepropanoyl)thio]acrylamide]	> 500 µg/mL	250 µg/mL (≈ 736 µM)	> 500 µg/mL	90%	50%	> 500 µg/mL	< 4 µg/mL	> 500 µg/mL	0%	0%		85%	90%		pest or weed control at 50 ppm (Piricularia oryzae; Pyricularia oryzae, read-out: % Control RB, application rate 50 ppm): 75%
CCCCCCCCNC(=O)/C=C\SC(=O)CCCl [Compound 24, N-octyl-cis-3-[(3-chloropropanoyl)thio]acrylamide]					0%				0%	0%	0%			> 250 µg/mL	MIC (Escherichia coli [12]): > 250 µg/mL; MIC (Candida albicans): 12 µg/mL (≈ 39.2 µM); pest or weed control at 100 ppm (Phytophthora infestans; Phytophthora infestans, in Solanum lycopersicum, 96 h, read-out: % Control TLB, application rate 100 ppm): 95%; MIC (Staphylococcus aureus [13]): > 250 µg/mL; MIC (Aspergillus niger [14]): 63 µg/mL (≈ 206 µM); MIC (Aureobasidium pullulans [15]): < 2 µg/mL; MIC (Pseudomonas aerugenosa [16]): > 250 µg/mL
CCCCCCCCNC(=O)/C=C\SC(=O)N(c1ccccc1)c1ccccc1 [Compound 41, N-octyl-cis-3-(diphenylaminocarbonylthio)acrylamide]	> 500 µg/mL	> 500 µg/mL	> 500 µg/mL			≥ 500 µg/mL	> 500 µg/mL	> 500 µg/mL	0%					> 250 µg/mL	pest or weed control at 200 ppm (Phytophthora infestans; Phytophthora infestans, in Solanum lycopersicum, 96 h, read-out: % Control TLB, application rate 200 ppm): 0%; pest or weed control at 25 ppm [4, 19]: 100%; pest or weed control at 200 ppm [9, 20]: 0%; pest or weed control at 200 ppm [10, 21]: 0%; pest or weed control at 200 ppm (Piricularia oryzae; Pyricularia oryzae, read-out: % Control RB, application rate 200 ppm): 0%
CCCCCCCCNC(=O)/C=C\SCC(O)c1ccco1 (stereo not shown) [Compound 42]															% Control TLB (Phytophthora infestans; application rate 200 ppm): 0 % Control; % Control WLR ([4]; in vivo): 0 % Control; % Control WPM ([9]; in vivo): 0 % Control; % Control CDM ([10]; in vivo): 50 % Control; % Control RB (Piricularia oryzae; in vivo): 90 % Control; % Control WSR ([11]; application rate 200 ppm): 50 % Control; EC50 (Pythium ultimum): 9 ppm; MIC Ps.fl (Pseudomonas fluorescens [17]): > 250 Ppm
